Eight molecules from ChEMBL document CHEMBL1201862, “PubChem BioAssay data set” (2004) can be followed below.

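Interpolation was linear, between the two tested concentrations surrounding the appropriate level; five concentrations were tested over 48 hours in 96-well plates. The concentration for 50% growth inhibition is given as GI50.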 Active and inactive are the calls of the source. Cut-off read from the data, not from the text of the source: active = GI50 up to about 1.1 µM and inactive = higher. Bounds are passed on as bounds.

Among the test systems are HL-60; OVCAR-8; HOP-62; OVCAR-5; NCI-H23; SF-295; HCT-15; IGROV-1; HOP-92; COLO 205; SK-OV-3; UACC-257; K562; HCC 2998; HCT-116; NCI-H460; SK-MEL-28; SNB-75; SK-MEL-2; Malme-3M.
Common to all, as to test: NCI-60 cell line screen, 48 h

For the molecule `CCOc1ncn(-c2ccc(NC(=S)Nc3cccc(O)c3)cc2)n1`, the GI50 in the experiment with HL-60, in the experiment on OVCAR-8, in the experiment on HOP-62, in the experiment on OVCAR-5, with NCI-H23 and in the experiment with SF-295 was > 100 µM (inactive) throughout. The GI50 with HCT-15 was more than 100 µM; with IGROV-1, > 100 µM (inactive); in the experiment on HOP-92, > 100 µM (inactive); in the experiment with COLO 205 it was > 100 µM (inactive); with SK-OV-3, > 100 µM (inactive); in the experiment with UACC-257 it was > 100 µM (inactive). Besides, the GI50 with K562 was > 100 µM (inactive); in the experiment on HCC 2998 it was > 100 µM (inactive); in the experiment on HCT-116, > 100 µM (inactive); with NCI-H460, > 100 µM (inactive); in the experiment with SK-MEL-28 it was > 100 µM (inactive); in the experiment with SNB-75, 40.4 µM (inactive).
Regarding `CC(=O)O[C@H]1CC[C@H]2[C@@H]3CCC(C(C)=O)[C@H](C(=O)O)[C@H]3CC[C@]12C` (some centres not stated), the GI50 in the experiment on HL-60, in the experiment on SK-MEL-2, in the experiment on OVCAR-8, in the experiment with HOP-62, with OVCAR-5 and in the experiment with Malme-3M was > 100 µM (inactive) throughout. In addition, the GI50 is > 100 µM (inactive) with NCI-H23; > 100 µM (inactive) in the experiment with SF-295; more than 100 µM in the experiment with HCT-15; > 100 µM (inactive) with IGROV-1; > 100 µM (inactive) in the experiment with HOP-92; > 100 µM (inactive) with COLO 205. Also, the GI50 in the experiment with SK-OV-3, in the experiment with UACC-257, in the experiment with K562, in the experiment with HCC 2998, with NCI-H460 and in the experiment with SK-MEL-28 was > 100 µM (inactive) throughout.
For `O=c1oc2ccccc2n1P(=O)(Oc1ccc(Cl)cc1)n1c(=O)oc2ccccc21`, the GI50 was 41.8 µM (inactive) with HL-60; 55 µM (inactive) in the experiment with SK-MEL-2; > 100 µM (inactive) in the experiment with OVCAR-8; > 100 µM (inactive) in the experiment on HOP-62; > 100 µM (inactive) in the experiment on OVCAR-5; > 100 µM (inactive) with Malme-3M. The GI50 was > 100 µM (inactive) in the experiment with NCI-H23; 93.8 µM (inactive) in the experiment with SF-295; > 100 µM (inactive) in the experiment on IGROV-1; > 100 µM (inactive) in the experiment on HOP-92; > 100 µM (inactive) in the experiment with COLO 205; > 100 µM (inactive) in the experiment on SK-OV-3. In addition, the GI50 was > 100 µM (inactive) in the experiment with UACC-257; 42.2 µM (inactive) in the experiment with K562; 46.6 µM (inactive) with HCC 2998; > 100 µM (inactive) with HCT-116; > 100 µM (inactive) in the experiment with SK-MEL-28; > 100 µM (inactive) with SNB-75.
Turning to `CCCCCCCCCCCCCCCc1nnc(S)[nH]1`, the GI50 with HL-60 is 49.8 µM (inactive); with SK-MEL-2, 29.6 µM (inactive); in the experiment with HOP-62, > 100 µM (inactive); in the experiment on OVCAR-5, > 100 µM (inactive); in the experiment on Malme-3M it was > 100 µM (inactive); in the experiment on NCI-H23, > 100 µM (inactive). Besides, the GI50 was 48 µM with HCT-15; > 100 µM (inactive) with SK-OV-3; 88.7 µM (inactive) with UACC-257; 52.6 µM (inactive) in the experiment with K562; > 100 µM (inactive) with HCC 2998; > 100 µM (inactive) in the experiment with HCT-116. For the same molecule, the GI50 in the experiment on NCI-H460, with SK-MEL-28 and in the experiment with SNB-75 was > 100 µM (inactive) throughout.
For `CN1C(=O)C(C#N)C2C[C@@]1(C)Oc1ccccc12` (some centres not stated), the GI50 in the experiment on HL-60, in the experiment on SK-MEL-2, in the experiment with OVCAR-8, in the experiment on HOP-62, in the experiment with OVCAR-5 and with NCI-H23 was > 100 µM (inactive) in each case. Besides, the GI50 in the experiment on SF-295 is > 100 µM (inactive); in the experiment with HCT-15 it was more than 100 µM; with IGROV-1 it was > 100 µM (inactive); with HOP-92 it was > 100 µM (inactive); in the experiment with COLO 205 it was > 100 µM (inactive); in the experiment with SK-OV-3 it was > 100 µM (inactive). Also, the GI50 with UACC-257 was > 100 µM (inactive); with K562, > 100 µM (inactive); with HCC 2998, > 100 µM (inactive); in the experiment on HCT-116, > 100 µM (inactive); in the experiment with NCI-H460, 91.8 µM (inactive); in the experiment with SK-MEL-28, > 100 µM (inactive). Moreover, in the experiment on SNB-75, the GI50 was > 100 µM (inactive).
Take `CC(=O)/N=C1\N/C(=C/c2cc([N+](=O)[O-])ccc2O)CN1C`: the GI50 is 69.2 µM (inactive) with HL-60; > 100 µM (inactive) with SK-MEL-2; > 100 µM (inactive) in the experiment on OVCAR-8; > 100 µM (inactive) with HOP-62; > 100 µM (inactive) in the experiment with OVCAR-5; > 100 µM (inactive) in the experiment with NCI-H23. Also, the GI50 with SF-295 was > 100 µM (inactive); in the experiment with HCT-15, more than 100 µM; with IGROV-1, > 100 µM (inactive); in the experiment on HOP-92, > 100 µM (inactive); in the experiment on COLO 205 it was > 100 µM (inactive); with SK-OV-3, > 100 µM (inactive). Further, the GI50 with UACC-257, in the experiment on HCC 2998, with HCT-116, in the experiment with NCI-H460, in the experiment on SK-MEL-28 and in the experiment with SNB-75 was > 100 µM (inactive) each time.
On to `CCOC(=O)/C=C1/C(CCCOCc2ccccc2)C2CCCC23CC2(CCN13)OCCO2` (configuration not stated), for which the GI50 in the experiment on HL-60 is 10.2 µM (inactive); with SK-MEL-2, 17 µM (inactive); in the experiment on OVCAR-8, 24.8 µM (inactive); in the experiment on OVCAR-5, 44 µM (inactive); in the experiment on Malme-3M it was 16.1 µM (inactive); in the experiment on NCI-H23, 12.5 µM (inactive). Moreover, the GI50 in the experiment with SF-295 was 23.6 µM (inactive); in the experiment with HCT-15, 20.4 µM; with IGROV-1, 24.7 µM (inactive); with COLO 205, 19.1 µM (inactive); in the experiment with SK-OV-3, 43 µM (inactive); in the experiment on UACC-257, 19.5 µM (inactive). Further, the GI50 is 13.5 µM (inactive) in the experiment with K562; 25.8 µM (inactive) in the experiment on HCC 2998; 18.7 µM (inactive) with NCI-H460; 18.4 µM (inactive) in the experiment with SK-MEL-28; 2.99 µM (inactive) in the experiment on SNB-75.
For the molecule `O=C1OC(CN2CCOCC2)CN1/N=C/c1ccc([N+](=O)[O-])o1` (configuration not stated) [FURALTADONE], the GI50 with HL-60 was 48.8 µM (inactive); in the experiment on SK-MEL-2 it was 69.3 µM (inactive); in the experiment on OVCAR-8, 45.8 µM (inactive); in the experiment on HOP-62, 61.9 µM (inactive); with OVCAR-5, 61.5 µM (inactive); in the experiment with Malme-3M, 22.7 µM (inactive). The GI50 with NCI-H23 was 22.9 µM (inactive); in the experiment with SF-295 it was 34.9 µM (inactive); with HCT-15, 17 µM; with IGROV-1, 32.3 µM (inactive); in the experiment with HOP-92 it was 64.4 µM (inactive); in the experiment on COLO 205 it was 27.5 µM (inactive). In addition, the GI50 with SK-OV-3 is 74.6 µM (inactive); in the experiment with UACC-257 it was 35.7 µM (inactive); in the experiment with K562, 70 µM (inactive); with HCT-116, 19.1 µM (inactive); in the experiment with NCI-H460, 31.4 µM (inactive); in the experiment with SK-MEL-28 it was > 100 µM (inactive). For the same molecule, the GI50 in the experiment with SNB-75 is > 100 µM (inactive).
